Like-named read-outs stand apart in the source and are kept apart here.
What was measured:
[1] = pH and heat stability of antibiotic PS-5 in aqueous solution; type: physicochemical; conditions: for remaining at 0.25 h: water, pH 9, at least 15 min of heating at 60° C., aqueous solution, around neutral to weakly alkaline pH below pH 9
Serratia marcescens S-18 = assay: Potentiation disc assay with penicillin G (Table 9); type: cell-based; conditions: for Inhibition zone With pen. G: 50 μg/ml penicillin G in agar
Experimental: (§1) (A) Ten milliliters of molten nutrient agar containing 50 μg/ml of penicillin G or cephaloridine, 0.8% of Kyokuto Nutrient Broth Powder and 1.0% of Difco Bacto-Agar (pH 7.0) were seeded with the beta-lactam-resistant, beta-lactamase-producing microorganisms indicated in Tables 9 and 10, and poured in a 9-cm Petri dish to provide the bio-assay agar plate. On this assay plate, 8-mm pulp discs containing 25 μl each of antibiotic PS-5 solutions at the indicated concentrations were placed and incubated at 35° C. for 18 hours before reading the inhibition zones. The control assay plate was similarly prepared without penicillin G nor cephaloridine. As reference antibiotics, penicillin G, ampicillin, oxacillin and cefazolin were disc-assayed under the same conditions.

Proteus vulgaris P-5 = assay: as above; type: cell-based; conditions: for Inhibition zone With pen. G: 50 μg/ml penicillin G in agar
Experimental: as §1

Citrobacter freundii E-9 = assay: as above; type: cell-based; conditions: for Inhibition zone With pen. G: 50 μg/ml penicillin G in agar
Experimental: as §1

Proteus sp. P-22 [2] = assay: as above; type: cell-based; conditions: for Inhibition zone With pen. G: 50 μg/ml penicillin G in agar
Experimental: as §1

Enterobacter sp. E-8 = assay: as above; type: cell-based; conditions: for Inhibition zone With pen. G: 50 μg/ml penicillin G in agar
Experimental: as §1

Proteus sp. P-22 [3] = assay: Potentiation disc assay of trityl ester (Table 14); type: cell-based; conditions: for Halo of inhibition Cephaloridine added: 50 μg/ml cephaloridine in base agar
Experimental: (A) Assay Petri dishes (9 cm in diameter) containing resistant microorganisms were prepared by overlaying 10 ml of the molten nutrient agar seeded with beta-lactam-resistant (beta-lactamase-producing) microorganisms, on the solid base layer of nutrient agar (pH 7.0) (15 ml) containing 50 μg/ml of penicillin G or cephaloridine. As described before, the antibiotic solutions to be tested were applied in a 25 μl amount on an 8 mm pulp disc and placed on the said assay dishes. After incubation for 18 hours at 35° C., the inhibition halos were measured and compared with the results on the corresponding assay dished containing neither penicillin G nor cephaloridine. From the data in Table 14, it is very clear that the combination of the tritylation product of antibiotic PS-5 at a concentration below the lower limit of disc assay, with penicillin G or cephaloridine, at a concentration below said limit, produced a significant halo of inhibition. This fact clearly proves the potentiation of the antibiotic activity of penicillin G or cephaloridine with the tritylation product of antibiotic PS-5.

[4] = Solubility of trityl ester of antibiotic PS-5; type: physicochemical
Experimental: The solubility of the tritylation product of the antibiotic PS-5 was determined by dissolving under […] 5 mg each of the tritylation product of the antibiotic PS-5 in 0.1 ml each of the test solvents at 20° C.

[5] = molecular target: Beta-lactamase from Citrobacter freundii E-9 (Citrobacter freundii, UniProt P05193); assay: Beta-lactamase inhibition, hydrolysis of cephaloridine (I50 CER); type: biochemical; conditions: Citrobacter freundii E-9 beta-lactamase; cephaloridine substrate; 15 minutes preincubation at 30° C.
Beta-lactamase from Citrobacter freundii E-9, sequence (P05193 21-381): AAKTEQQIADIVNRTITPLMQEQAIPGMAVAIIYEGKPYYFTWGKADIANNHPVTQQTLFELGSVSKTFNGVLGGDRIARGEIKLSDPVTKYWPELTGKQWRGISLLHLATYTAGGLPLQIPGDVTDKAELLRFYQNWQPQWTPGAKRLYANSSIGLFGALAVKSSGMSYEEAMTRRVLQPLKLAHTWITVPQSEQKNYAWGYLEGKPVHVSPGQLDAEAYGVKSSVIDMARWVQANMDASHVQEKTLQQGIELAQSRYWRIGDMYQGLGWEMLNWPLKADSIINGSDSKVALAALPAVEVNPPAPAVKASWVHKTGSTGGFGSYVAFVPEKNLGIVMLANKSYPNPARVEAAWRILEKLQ
Experimental: The I50^CER value of hydrolysis of cephaloridine by beta-lactamasefor 10 minutes (from one minute to ten minutes after the incubation is started). The rate of hydrolysis of cephaloridine is measured by the decrease of optical density at […]. For routine inhibition assays, beta-lactamase of Citrobacter freundii E-9 and Proteus vulgaris P-5 were employed after purification by affinity chromatography with cephalexin-Sepharose 4B.
Buffer: 0.1 M phosphate buffer (Na-K phosphate) (pH 6.8)
Substrate: 0.05 micromole/ml in phosphate buffer
Beta-lactamase: The enzyme was diluted enough to give a fall of ca. 0.1 optical density unit per 10 minutes at 255 mμ in the absence of an inhibitor. (Apparatus: Hitachi Spectrophotometer UV-VIS 139, Hitachi, Ltd.).
(This can hold one control cuvette and three sample cuvettes. Four 1 cm quarz cuvettes (3 ml in volume) were employed. The temperature was maintained at 30° C. during the reaction). […]
After pre-incubation, the substrate solution (pre-warmed at 30° C.; 3.0 ml) was added and quickly mixed to start the reaction. […] The value of I50^CER (μg/ml) was determined by diluting the inhibitor untill the dilution gave 50% of the rate of hydrolysis of cephaloridine recorded in the no-inhibitor control for 10 minutes (from 1 minute to 11 minutes after the substrate was added).

[6] = 5 mg in 0.1 ml solvent at 20° C.

Structure (SMILES): CCC1C(=O)N2C(C(=O)O)=C(SCCNC(C)=O)CC12 (single isomer, unassigned) [Antibiotic PS-5]
- remaining at 5 min ([1]; pH 3, pH 3.0 for 5 minutes at -17° C., read-out: Initial antibiotic activity still detected): ≥ 30%
- remaining at 0.25 h ([1]; read-out: Antibiotic activity remaining): ≥ 50%
- remaining at 0.25 h ([1]; usual value, read-out: Antibiotic activity remaining, usually): > 70%
- Inhibition zone With pen. G (Serratia marcescens S-18; PS-5 79.5 μg/ml): 13.8 mm
- Inhibition zone With pen. G (Serratia marcescens S-18; PS-5 100 μg/ml): 16.1 mm
- Inhibition zone With pen. G (Serratia marcescens S-18; PS-5 159 μg/ml): 22.0 mm
- Inhibition zone With pen. G (Serratia marcescens S-18; PS-5 318 μg/ml): 22.1 mm
- zone of inhibition at 79.5 µg/mL (Serratia marcescens S-18; S18, 18 h, PS-5 79.5 μg/ml, read-out: Inhibition zone Without pen. G): 0 mm
- zone of inhibition at 100 µg/mL (Serratia marcescens S-18; S18, 18 h, PS-5 100 μg/ml, read-out: Inhibition zone Without pen. G): 13 mm
- zone of inhibition at 159 µg/mL (Serratia marcescens S-18; S18, 18 h, PS-5 159 μg/ml, read-out: Inhibition zone Without pen. G): 17.8 mm
- zone of inhibition at 318 µg/mL (Serratia marcescens S-18; S18, 18 h, PS-5 318 μg/ml, read-out: Inhibition zone Without pen. G): 21.3 mm
- zone of inhibition at 79.5 µg/mL (Proteus vulgaris P-5; P5, 18 h, PS-5 79.5 μg/ml, read-out: Inhibition zone Without pen. G): 0 mm
- zone of inhibition at 100 µg/mL (Proteus vulgaris P-5; P5, 18 h, PS-5 100 μg/ml, read-out: Inhibition zone Without pen. G): 10.3 mm
- zone of inhibition at 159 µg/mL (Proteus vulgaris P-5; P5, 18 h, PS-5 159 μg/ml, read-out: Inhibition zone Without pen. G): 14 mm
- zone of inhibition at 318 µg/mL (Proteus vulgaris P-5; P5, 18 h, PS-5 318 μg/ml, read-out: Inhibition zone Without pen. G): 16 mm
- Inhibition zone With pen. G (Proteus vulgaris P-5; PS-5 79.5 μg/ml): 18.3 mm
- Inhibition zone With pen. G (Proteus vulgaris P-5; PS-5 100 μg/ml): 22.2 mm
- Inhibition zone With pen. G (Proteus vulgaris P-5; PS-5 159 μg/ml): 24.5 mm
- Inhibition zone With pen. G (Proteus vulgaris P-5; PS-5 318 μg/ml): 26.6 mm
- zone of inhibition at 79.5 µg/mL (Citrobacter freundii E-9; E9, 18 h, PS-5 79.5 μg/ml, read-out: Inhibition zone Without pen. G): 10.4 mm
- zone of inhibition at 100 µg/mL (Citrobacter freundii E-9; E9, 18 h, PS-5 100 μg/ml, read-out: Inhibition zone Without pen. G): 13.2 mm
- zone of inhibition at 159 µg/mL (Citrobacter freundii E-9; E9, 18 h, PS-5 159 μg/ml, read-out: Inhibition zone Without pen. G): 17.2 mm
- zone of inhibition at 318 µg/mL (Citrobacter freundii E-9; E9, 18 h, PS-5 318 μg/ml, read-out: Inhibition zone Without pen. G): 20.8 mm
- Inhibition zone With pen. G (Citrobacter freundii E-9; PS-5 79.5 μg/ml): 13.1 mm
- Inhibition zone With pen. G (Citrobacter freundii E-9; PS-5 100 μg/ml): 15.2 mm
- Inhibition zone With pen. G (Citrobacter freundii E-9; PS-5 159 μg/ml): 19.2 mm
- Inhibition zone With pen. G (Citrobacter freundii E-9; PS-5 318 μg/ml): 23.0 mm
- zone of inhibition at 79.5 µg/mL (Proteus sp. P-22 [2]; 18 h, PS-5 79.5 μg/ml, read-out: Inhibition zone Without pen. G): 0 mm
- zone of inhibition at 100 µg/mL (Proteus sp. P-22 [2]; 18 h, PS-5 100 μg/ml, read-out: Inhibition zone Without pen. G): 0 mm
- zone of inhibition at 159 µg/mL (Proteus sp. P-22 [2]; 18 h, PS-5 159 μg/ml, read-out: Inhibition zone Without pen. G): 11.7 mm
- zone of inhibition at 318 µg/mL (Proteus sp. P-22 [2]; 18 h, PS-5 318 μg/ml, read-out: Inhibition zone Without pen. G): 13.6 mm
- Inhibition zone With pen. G (Proteus sp. P-22 [2]; PS-5 79.5 μg/ml): 12.8 mm
- Inhibition zone With pen. G (Proteus sp. P-22 [2]; PS-5 100 μg/ml): 13.8 mm
- Inhibition zone With pen. G (Proteus sp. P-22 [2]; PS-5 159 μg/ml): 18.2 mm
- Inhibition zone With pen. G (Proteus sp. P-22 [2]; PS-5 318 μg/ml): 21.4 mm
- Inhibition zone With pen. G (Enterobacter sp. E-8; PS-5 79.5 μg/ml): 11.0 mm
- Inhibition zone With pen. G (Enterobacter sp. E-8; PS-5 100 μg/ml): 13.8 mm
- Inhibition zone With pen. G (Enterobacter sp. E-8; PS-5 159 μg/ml): 17.5 mm
- Inhibition zone With pen. G (Enterobacter sp. E-8; PS-5 318 μg/ml): 20.0 mm
- zone of inhibition at 79.5 µg/mL (Enterobacter sp. E-8; SP.E8, 18 h, PS-5 79.5 μg/ml, read-out: Inhibition zone Without pen. G): 11 mm
- zone of inhibition at 100 µg/mL (Enterobacter sp. E-8; SP.E8, 18 h, PS-5 100 μg/ml, read-out: Inhibition zone Without pen. G): 13.8 mm
- zone of inhibition at 159 µg/mL (Enterobacter sp. E-8; SP.E8, 18 h, PS-5 159 μg/ml, read-out: Inhibition zone Without pen. G): 17.2 mm
- zone of inhibition at 318 µg/mL (Enterobacter sp. E-8; SP.E8, 18 h, PS-5 318 μg/ml, read-out: Inhibition zone Without pen. G): 20.1 mm

Structure (SMILES): CCC1C(=O)N2C(C(=O)OC(c3ccccc3)(c3ccccc3)c3ccccc3)=C(SCCNC(C)=O)CC12 (single isomer, unassigned) [Trityl PS-5]
- zone of inhibition at 50 µg/mL (Proteus sp. P-22 [3]; 18 h, Trityl PS-5 50 μg/ml, read-out: Halo of inhibition Control): 0 mm
- zone of inhibition at 100 µg/mL (Proteus sp. P-22 [3]; 18 h, Trityl PS-5 100 μg/ml, read-out: Halo of inhibition Control): 0 mm
- Halo of inhibition Cephaloridine added (Proteus sp. P-22 [3]; Trityl PS-5 50 μg/ml): 11.5 mm
- Halo of inhibition Cephaloridine added (Proteus sp. P-22 [3]; Trityl PS-5 100 μg/ml): 13.5 mm
- Solubility in benzene, ethyl acetate, chloroform, methanol, ethanol, acetone, DMF and DMSO [4, 6]: Highly soluble
- Solubility in water, n-hexane and petroleum ether [4, 6]: Substantially insoluble
- Solubility in benzene, ethyl acetate, chloroform, acetone and dimethyl sulfoxide ([4]; general description): soluble
- Solubility in water, hexane and petroleum ether ([4]; general description): substantially insoluble
- IC50 [5]: 1.48 µM

Source: US4318916A, “Antibiotic PS-5 and derivatives having β-lactamase inhibitory activity and production thereof” (Sanraku-Ocean Co., Ltd., priority 1977, dated 1982)
